From patent US6358885B1, “Substituted phenylheterocyclic herbicides” (Mississippi State University, priority 1992, dated 2002)

Assays:
[1] = test system: blackgrass; test: Test B preemergence/postemergence greenhouse plant response rating 0 to 10; format: in vivo, Alopecurus myosuroides; details: 0 to 10 scale
Outline: (§1)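 Both application timings were run together: seeds got compound preemergence, and established seedlings (two to eighteen cm) got it postemergence. Non-phytotoxic solvent carried the chemical. Ratings are visual, versus controls, at twelve to sixteen days.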

[2] = test system: barley; test: as above; format: in vivo, Hordeum vulgare; details: 0 to 10 scale
Outline: as §1

[3] = test system: rice; test: as above; format: in vivo, Oryza sativa; details: 0 to 10 scale
Outline: as §1

[4] = test system: purple nutsedge; test: as above; format: in vivo, Cyperus rotundus; details: 0 to 10 scale
Outline: as §1

[5] = test system: sugar beet; test: as above; format: in vivo, Beta vulgaris; details: 0 to 10 scale
Outline: as §1

[6] = test system: barnyardgrass; test: Test C flood test plant response rating 0 to 100; format: in vivo, Echinochloa crus-galli; details: for Plant response rating Barnyardgrass 2: flood test species listed under POSTEMERGENCE, 0 to 100 scale
Outline: (§2)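 Compounds in non-phytotoxic solvent applied preemergence to sandy loam one day after planting, postemergence at the 1–4 leaf stage, or to ~2.5 cm floodwater over silt loam.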

[7] = test system: rice; test: Test C flood test plant response rating 0 to 100; format: in vivo, Oryza sativa; details: for Plant response rating Rice Japonica: flood test species listed under POSTEMERGENCE, 0 to 100 scale
Outline: as §2

[8] = test system: rape; test: Test B preemergence/postemergence greenhouse plant response rating 0 to 10; format: in vivo, Brassica napus; details: 0 to 10 scale
Outline: as §1

[9] = test system: crabgrass; test: as above; format: in vivo, Digitaria spp.; details: 0 to 10 scale
Outline: as §1

[10] = test system: pigweed; test: Test C preemergence/postemergence greenhouse plant response rating 0 to 100; format: in vivo, Amaranthusretroflexus; details: POSTEMERGENCE; for Plant response rating Pigweed: 0 to 100 scale
Outline: (§3)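 Compounds in non-phytotoxic solvent went onto sandy loam before emergence (seeded one day earlier) or onto plants at the one-to-four leaf stage. Duck salad was treated via flood water (~2.5 cm, maintained) over silt loam.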

[11] = test system: bedstraw; test: Test B preemergence/postemergence greenhouse plant response rating 0 to 10; format: in vivo, Galium aparine; details: 0 to 10 scale
Outline: as §1

[12] = test system: corn; test: Test C preemergence/postemergence greenhouse plant response rating 0 to 100; format: in vivo, Zea mays; details: POSTEMERGENCE; for Plant response rating, Corn: 0 to 100 scale
Outline: as §3

[13] = test system: lambsquarters; test: Test B preemergence/postemergence greenhouse plant response rating 0 to 10; format: in vivo, Chenopodium album; details: 0 to 10 scale
Outline: as §1

[14] = test system: sorghum; test: Test C preemergence/postemergence greenhouse plant response rating 0 to 100; format: in vivo, Sorghum bicolor; details: POSTEMERGENCE; for Plant response rating, Sorghum: 0 to 100 scale
Outline: as §3

[15] = test system: umbrella sedge; test: Test C flood test plant response rating 0 to 100; format: in vivo, Cyperus difformis; details: for Plant response rating Umbrella sedge: flood test species listed under POSTEMERGENCE, 0 to 100 scale
Outline: as §2

[16] = test system: soybean; test: Test B preemergence/postemergence greenhouse plant response rating 0 to 10; format: in vivo, Glycine max; details: 0 to 10 scale
Outline: as §1

[17] = test system: morningglory; test: Test C preemergence/postemergence greenhouse plant response rating 0 to 100; format: in vivo, Ipomoea hederacea; details: POSTEMERGENCE; for Plant response rating, Morningglory: 0 to 100 scale
Outline: as §3

[18] = test system: cocklebur; test: Test B preemergence/postemergence greenhouse plant response rating 0 to 10; format: in vivo, Xanthium pensylvanicum; details: 0 to 10 scale
Outline: as §1

[19] = POSTEMERGENCE section, flood test, Rate 4 g/ha
[20] = Rate 16 g/ha, under POSTEMERGENCE head (flood test species)

SMILES: Fc1cc(Cl)c(OCCCl)cc1-c1nn2c(c1Cl)CCCC2 [Compound 49]
- Plant response rating, Blackgrass ([1]; POSTEMERGENCE, Rate 50 g/ha): 4
- Plant response rating, Blackgrass ([1]; POSTEMERGENCE, Rate 200 g/ha): 6
- Plant response rating, Blackgrass ([1]; PREEMERGENCE, Rate 50 g/ha): 0
- Plant response rating, Blackgrass ([1]; Rate 200 g/ha, PREEMERGENCE): 2
- Plant response rating, Barley ([2]; POSTEMERGENCE, Rate 50 g/ha): 4
- Plant response rating, Barley ([2]; POSTEMERGENCE, Rate 200 g/ha): 5
- Plant response rating, Barley ([2]; PREEMERGENCE, Rate 50 g/ha): 0
- Plant response rating, Barley ([2]; Rate 200 g/ha, PREEMERGENCE): 0
- Plant response rating, Rice ([3]; POSTEMERGENCE, Rate 50 g/ha): 5
- Plant response rating, Rice ([3]; PREEMERGENCE, Rate 50 g/ha): 0
- Plant response rating, Rice ([3]; Rate 200 g/ha, POSTEMERGENCE): 6
- Plant response rating, Rice ([3]; Rate 200 g/ha, PREEMERGENCE): 0
- Plant response rating, Nutsedge ([4]; POSTEMERGENCE, Rate 50 g/ha): 2
- Plant response rating, Nutsedge ([4]; PREEMERGENCE, Rate 50 g/ha): 0
- Plant response rating, Nutsedge ([4]; Rate 200 g/ha, POSTEMERGENCE): 6
- Plant response rating, Nutsedge ([4]; Rate 200 g/ha, PREEMERGENCE): 0
- Plant response rating, Sugar beet ([5]; POSTEMERGENCE, Rate 50 g/ha): 10
- Plant response rating, Sugar beet ([5]; PREEMERGENCE, Rate 50 g/ha): 9
- Plant response rating, Sugar beet ([5]; Rate 200 g/ha, POSTEMERGENCE): 10
- Plant response rating, Sugar beet ([5]; Rate 200 g/ha, PREEMERGENCE): 10
- Plant response rating (0 to 100), Barnyardgrass 2 [6, 19]: 90
- Plant response rating (0 to 100), Barnyardgrass 2 [6, 20]: 100
- Plant response rating Barnyardgrass 2 ([6]; 62 g/ha): 100
- Plant response rating Barnyardgrass 2 ([6]; 250 g/ha): 100
- Plant response rating (0 to 100), Rice Japonica [7, 19]: 10
- Plant response rating (0 to 100), Rice Japonica [7, 20]: 30
- Plant response rating Rice Japonica ([7]; 62 g/ha): 50
- Plant response rating Rice Japonica ([7]; 250 g/ha): 60
- Plant response rating, Rape ([8]; POSTEMERGENCE, Rate 50 g/ha): 7
- Plant response rating, Rape ([8]; PREEMERGENCE, Rate 50 g/ha): 1
- Plant response rating, Rape ([8]; Rate 200 g/ha, POSTEMERGENCE): 6
- Plant response rating, Rape ([8]; Rate 200 g/ha, PREEMERGENCE): 6
- Plant response rating, Crabgrass ([9]; POSTEMERGENCE, Rate 50 g/ha): 4
- Plant response rating, Crabgrass ([9]; PREEMERGENCE, Rate 50 g/ha): 0
- Plant response rating, Crabgrass ([9]; Rate 200 g/ha, PREEMERGENCE): 5
- Plant response rating Pigweed ([10]; 62 g/ha): 100
- Plant response rating Pigweed ([10]; 250 g/ha): 100
- Plant response rating (0 to 100), Pigweed ([10]; Rate 4 g/ha): 70
- Plant response rating (0 to 100), Pigweed ([10]; Rate 16 g/ha): 100
- Plant response rating, Bedstraw ([11]; POSTEMERGENCE, Rate 50 g/ha): 9
- Plant response rating, Bedstraw ([11]; POSTEMERGENCE, Rate 200 g/ha): 9
- Plant response rating, Bedstraw ([11]; PREEMERGENCE, Rate 50 g/ha): 8
- Plant response rating, Bedstraw ([11]; Rate 200 g/ha, PREEMERGENCE): 9
- Plant response rating, Corn ([12]; 62 g/ha): 40
- Plant response rating, Corn ([12]; 250 g/ha): 50
- Plant response rating (0 to 100), Corn ([12]; Rate 4 g/ha): 10
- Plant response rating (0 to 100), Corn ([12]; Rate 16 g/ha): 30
- Plant response rating, Lambsquarter ([13]; PREEMERGENCE, Rate 50 g/ha): 10
- Plant response rating, Lambsquarter ([13]; Rate 200 g/ha, POSTEMERGENCE): 10
- Plant response rating, Lambsquarter ([13]; Rate 200 g/ha, PREEMERGENCE): 10
- Plant response rating, Sorghum ([14]; 62 g/ha): 50
- Plant response rating, Sorghum ([14]; 250 g/ha): 60
- Plant response rating (0 to 100), Sorghum ([14]; Rate 4 g/ha): 30
- Plant response rating (0 to 100), Sorghum ([14]; Rate 16 g/ha): 40
- Plant response rating (0 to 100), Umbrella sedge [15, 19]: 40
- Plant response rating (0 to 100), Umbrella sedge [15, 20]: 70
- Plant response rating Umbrella sedge ([15]; 62 g/ha): 90
- Plant response rating Umbrella sedge ([15]; 250 g/ha): 95
- Plant response rating, Soybean ([16]; POSTEMERGENCE, Rate 50 g/ha): 8
- Plant response rating, Soybean ([16]; PREEMERGENCE, Rate 50 g/ha): 0
- Plant response rating, Soybean ([16]; Rate 200 g/ha, POSTEMERGENCE): 8
- Plant response rating, Soybean ([16]; Rate 200 g/ha, PREEMERGENCE): 3
- Plant response rating, Morningglory ([17]; 62 g/ha): 100
- Plant response rating, Morningglory ([17]; 250 g/ha): 100
- Plant response rating (0 to 100), Morningglory ([17]; Rate 4 g/ha): 40
- Plant response rating (0 to 100), Morningglory ([17]; Rate 16 g/ha): 50
- Plant response rating, Cocklebur ([18]; POSTEMERGENCE, Rate 50 g/ha): 9
- Plant response rating, Cocklebur ([18]; POSTEMERGENCE, Rate 200 g/ha): 8
- Plant response rating, Cocklebur ([18]; PREEMERGENCE, Rate 50 g/ha): 0
- Plant response rating, Cocklebur ([18]; Rate 200 g/ha, PREEMERGENCE): 0
